Results taken from PubChem BioAssay (NCI).
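Growth conditions: 96-well plates. Treatment: test compound, 48 hours, 5 concentrations. Analysis: linear interpolation between bracketing concentrations; unreached endpoints set to highest concentration. The concentration for 50% growth inhibition is given as GI50. TGI: concentration producing complete growth inhibition.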

Assays:
Experiment in all cases: DTP human tumour cell line panel, 48 h
CAKI-1 renal = tested on: CAKI-1 renal
CCRF-CEM leukemia = tested on: CCRF-CEM leukemia
HCT-116 colon = tested on: HCT-116 colon
MCF7 breast = tested on: MCF7 breast
NCI-H226 lung = tested on: NCI-H226 lung
NCI-H522 lung = tested on: NCI-H522 lung
RPMI-8226 leukemia = tested on: RPMI-8226 leukemia
SF-268 CNS = tested on: SF-268 CNS
T-47D breast = tested on: T-47D breast
U251 CNS = tested on: U251 CNS

Row | SMILES | TGI (CAKI-1 renal) | TGI (CCRF-CEM leukemia) | TGI (HCT-116 colon) | TGI (MCF7 breast) | TGI (NCI-H226 lung) | TGI (NCI-H522 lung) | TGI (RPMI-8226 leukemia) | TGI (SF-268 CNS) | TGI (T-47D breast) | TGI (U251 CNS) | GI50 (CCRF-CEM leukemia) | GI50 (HCT-116 colon) | GI50 (MCF7 breast) | GI50 (NCI-H522 lung) | GI50 (RPMI-8226 leukemia) | GI50 (SF-268 CNS) | GI50 (T-47D breast) | GI50 (CAKI-1 renal) | GI50 (NCI-H226 lung) | GI50 (U251 CNS)
1 | Cc1ccc(NCCN(C)C)c2c(=O)c3cc(O)ccc3sc12 | 11.6 µM | 5.7 µM | 8.79 µM | 1.59 µM | 15.2 µM | 11.1 µM | 11.6 µM | 15.6 µM | 28.4 µM | 8.49 µM |  |  |  |  |  |  |  |  |  | 
2 | COc1cc(/C=C2/Oc3c(OC)cccc3C2=O)ccc1O | > 100 µM | > 100 µM | > 100 µM | > 100 µM | > 100 µM | > 100 µM | > 100 µM | > 100 µM |  | > 100 µM |  |  |  |  |  |  |  |  |  | 
3 | C/C(=N\NC(=S)N1CCOCC1)c1nc2ncccc2[nH]1 | > 100 µM | > 100 µM | > 100 µM | 80.4 µM | > 100 µM | 59.3 µM | > 100 µM | > 100 µM | > 100 µM | 81.8 µM |  |  |  |  |  |  |  |  |  | 
4 | CCOC(=O)c1csc(NC(=O)C(C)N2CCOCC2)n1 (stereo unspecified) | > 100 µM | > 100 µM |  | > 100 µM |  |  | > 100 µM |  | > 100 µM | > 100 µM |  |  |  |  |  |  |  |  |  | 
5 | CCN(CC)CCNc1ccc([N+](=O)[O-])c2sc3cc(Cl)ccc3c(=O)c12 |  | > 100 µM | > 100 µM | > 100 µM |  | > 100 µM | 6.55 µM | 46.9 µM | > 100 µM |  | 3.17 µM | 3.24 µM | 3.28 µM | 9.01 µM | 2.32 µM | 9.88 µM | 29.8 µM |  |  | 
6 | c1cncc([O][Ge]([O]c2cccnc2)([O]c2cccnc2)[O]c2cccnc2)c1 | > 100 µM |  | > 100 µM |  | > 100 µM |  |  |  |  | > 100 µM |  | > 100 µM |  |  |  |  |  | > 100 µM | > 100 µM | > 100 µM
7 | CC1(Cl)CC(C)(/C=C/Cl)C(Cl)CC1Cl (stereo unspecified) | 33.3 µM | 59 µM | 30 µM |  |  | 31.6 µM |  | 31.1 µM |  | 30.8 µM |  |  |  |  |  |  |  |  |  | 
8 | Cc1ccc(NC(=O)C(=O)Cc2cccc[n+]2[O-])cc1C | > 100 µM | > 100 µM | > 100 µM |  | > 100 µM | > 100 µM | > 100 µM | > 100 µM |  | > 100 µM |  |  |  |  |  |  |  |  |  | 
9 | NC(Cc1ccccc1CP(=O)(O)O)C(=O)O (stereo unspecified) | > 100 µM | > 100 µM | > 100 µM | > 100 µM |  | > 100 µM | > 100 µM | > 100 µM | > 100 µM | > 100 µM |  |  |  |  |  |  |  |  |  | 
10 | COC(=O)C(NC(=O)c1ccccc1)C(c1c(O)cc(O)cc1O)P(=O)(OC)OC (stereo unspecified) | > 100 µM | > 100 µM | > 100 µM |  | > 100 µM | > 100 µM | > 100 µM | > 100 µM |  | > 100 µM |  |  |  |  |  |  |  |  |  | 
11 | Cc1cc(Nc2ccc(Cl)cc2)nc(NCCCNc2ccnc3cc(Cl)ccc23)n1 | 2.9 µM |  |  |  |  |  |  |  | 3.81 µM | 2.88 µM |  |  |  |  |  |  | 1.83 µM | 1.53 µM |  | 1.5 µM
12 | CC(C)=CCC/C(C)=C/C=C/C(C)=C/C1C[C@@]2(C(O)O1)[C@H](CCCO)/C(=C(/C)C=O)CC[C@]2(C)O (stereo partly specified) | 25.6 µM |  | 37.9 µM |  | 40.9 µM | 36.7 µM |  | 33.3 µM |  |  |  |  |  |  |  |  |  |  |  | 
13 | C(=C\c1c2oc(-c3ccccc3)cc(-c3ccccc3)c-2c2ccccc12)/C=C1\c2ccccc2-c2c(-c3ccccc3)cc(-c3ccccc3)[o+]c21 |  | > 100 µM | > 100 µM |  | > 100 µM | > 100 µM | > 100 µM | > 100 µM |  | > 100 µM |  |  |  |  |  |  |  |  |  | 
